From patent US20190367448A1, “TREATMENT OF SLEEP-WAKE DISORDERS” (SK Biopharmaceuticals Co., Ltd., priority 2005, published 2019)

Tested on: male adult Sprague Dawley rats
Assay: Sleep-wake organization in rats, polysomnographic recording (EEG, EOG, EMG, body movement) for 16 hours after acute i.p. administration
Format: in vivo, rat
Conditions: rats; for Duration (min) Active wake / Duration (min) Deep sleep / Duration (min) Light sleep / Duration (min) Passive wake / Duration (min) REM sleep / Duration (min) intermediate stage / ISWS/TST (%) / Latency (min) ISWS / Latency (min) REM sleep / Latency (min) dSWS / REMS/TST (%) / Shifts (number) Shift from ISWS to AW / Shifts (number) Shift from ISWS to PW / Shifts (number) Shift from REMS to AW / Shifts (number) Shift from REMS to PW / Shifts (number) Shift from dSWS to AW / Shifts (number) Shift from dSWS to PW / Total sleep time TST / dSWS/TST (%): 16 hours recording period; for change in number of active wakefulness epochs / change in number of deep sleep epochs / change in number of light sleep epochs / change in duration of active wakefulness / change in time spent in deep sleep / change in time spent in light sleep / change in number of REM sleep epochs / change in duration of REM sleep: 10 mg/kg
[1] = highest dose tested, 16 hours recording

`COC(=O)[C@H]1[C@@H](OC(=O)c2ccccc2)C[C@@H]2CC[C@H]1N2C` [Cocaine, cocaine] was tested, and the “Duration (min) Active wake” value (1 mg/kg i.p.) was 331.5 min, the “Duration (min) Deep sleep” value (1 mg/kg i.p.) was 162.9 min and the “Duration (min) Light sleep” value (1 mg/kg i.p.) was 293.2 min. The “Duration (min) Passive wake” value (1 mg/kg i.p.) was 69.8 min, the “Duration (min) REM sleep” value (1 mg/kg i.p.) was 84.2 min and the “Duration (min) intermediate stage” value (1 mg/kg i.p.) was 6.7 min. The “ISWS/TST (%)” value (1 mg/kg i.p.) was 51.8 ± 4.5%, the “Latency (min) ISWS” value (1 mg/kg i.p.) was 69.9 ± 51.2 min and the “Latency (min) REM sleep” value (1 mg/kg i.p.) was 74.3 ± 12.1 min. The “Latency (min) dSWS” value (1 mg/kg i.p.) was 79.3 ± 26.7 min, the “REMS/TST (%)” value (1 mg/kg i.p.) was 15.4 ± 0.9% and the “Shifts (number) Shift from ISWS to AW” value (1 mg/kg i.p.) was 184.1 number. For the same compound, the “Shifts (number) Shift from ISWS to PW” value (1 mg/kg i.p.) was 128.6 number, the “Shifts (number) Shift from REMS to AW” value (1 mg/kg i.p.) was 74.5 number and the “Shifts (number) Shift from REMS to PW” value (1 mg/kg i.p.) was 17.0 number. The “Shifts (number) Shift from dSWS to AW” value (1 mg/kg i.p.) was 10.1 number, the “Shifts (number) Shift from dSWS to PW” value (1 mg/kg i.p.) was 66.6 number and the “Total sleep time TST” value (1 mg/kg i.p.) was 547.0 ± 51.5 min. For the same compound, the “dSWS/TST (%)” value (1 mg/kg i.p.) was 31.2 ± 4.8%, the “Duration (min) Active wake” value (3 mg/kg i.p.) was 324.8 min and the “Duration (min) Deep sleep” value (3 mg/kg i.p.) was 172.6 min. For the same compound, the “Duration (min) Light sleep” value (3 mg/kg i.p.) was 303.2 min, the “Duration (min) Passive wake” value (3 mg/kg i.p.) was 66.7 min and the “Duration (min) REM sleep” value (3 mg/kg i.p.) was 76.7 min. For the same compound, the “Duration (min) intermediate stage” value (3 mg/kg i.p.) was 5.7 min, the “ISWS/TST (%)” value (3 mg/kg i.p.) was 53.8 ± 6.3% and the “Latency (min) ISWS” value (3 mg/kg i.p.) was 41.5 ± 9.2 min. The “Latency (min) REM sleep” value (3 mg/kg i.p.) was 112.0 ± 12.2 min, the “Latency (min) dSWS” value (3 mg/kg i.p.) was 68.6 ± 7.6 min and the “REMS/TST (%)” value (3 mg/kg i.p.) was 13.8 ± 1.1%. The “Shifts (number) Shift from ISWS to AW” value (3 mg/kg i.p.) was 218.5 number, the “Shifts (number) Shift from ISWS to PW” value (3 mg/kg i.p.) was 142.2 number and the “Shifts (number) Shift from REMS to AW” value (3 mg/kg i.p.) was 56.0 number. The “Shifts (number) Shift from REMS to PW” value (3 mg/kg i.p.) was 10.7 number, the “Shifts (number) Shift from dSWS to AW” value (3 mg/kg i.p.) was 10.2 number and the “Shifts (number) Shift from dSWS to PW” value (3 mg/kg i.p.) was 64.5 number. For the same compound, the “Total sleep time TST” value (3 mg/kg i.p.) was 558.2 ± 21.2 min, the “dSWS/TST (%)” value (3 mg/kg i.p.) was 31.4 ± 6.1% and the “Duration (min) Active wake” value (10 mg/kg i.p.) was 347.3 min. For the same compound, the “Duration (min) Deep sleep” value (10 mg/kg i.p.) was 171.9 min, the “Duration (min) Light sleep” value (10 mg/kg i.p.) was 294.6 min and the “Duration (min) Passive wake” value (10 mg/kg i.p.) was 55.0 min. The “Duration (min) REM sleep” value (10 mg/kg i.p.) was 74.7 min, the “Duration (min) intermediate stage” value (10 mg/kg i.p.) was 6.3 min and the “ISWS/TST (%)” value (10 mg/kg i.p.) was 53.8 ± 4.0%. The “Latency (min) ISWS” value (10 mg/kg i.p.) was 101.8 ± 6.9 min, the “Latency (min) REM sleep” value (10 mg/kg i.p.) was 192.1 ± 18.5 min and the “Latency (min) dSWS” value (10 mg/kg i.p.) was 138.8 ± 8.7 min. For the same compound, the “REMS/TST (%)” value (10 mg/kg i.p.) was 13.8 ± 1.5%, the “Shifts (number) Shift from ISWS to AW” value (10 mg/kg i.p.) was 201.2 number and the “Shifts (number) Shift from ISWS to PW” value (10 mg/kg i.p.) was 132.6 number. For the same compound, the “Shifts (number) Shift from REMS to AW” value (10 mg/kg i.p.) was 52.3 number, the “Shifts (number) Shift from REMS to PW” value (10 mg/kg i.p.) was 9.2 number and the “Shifts (number) Shift from dSWS to AW” value (10 mg/kg i.p.) was 10.4 number. The “Shifts (number) Shift from dSWS to PW” value (10 mg/kg i.p.) was 37.6 number, the “Total sleep time TST” value (10 mg/kg i.p.) was 547.6 ± 18.2 min and the “dSWS/TST (%)” value (10 mg/kg i.p.) was 31.3 ± 4.2%. The “change in number of active wakefulness epochs” value (0.5 h) was “+111%”, the “change in number of deep sleep epochs” value (0.5 h) was −100% and the “change in number of light sleep epochs” value (0.5 h) was −100%. For the same compound, the “change in duration of active wakefulness” value (0.5 h after treatment) was “+111%”, the “change in time spent in deep sleep” value (0.5 h after treatment) was 90% and the “change in time spent in light sleep” value (0.5 h after treatment) was −100%. The “change in number of REM sleep epochs” value (0.5 hr) was −100%, the “change in duration of REM sleep” value (0.5 hr after administration) was −100% and the “change in number of active wakefulness epochs” value (1 h) was “+500%”. The “change in duration of active wakefulness” value (1 h after treatment) was “+500%”, the “change in time spent in deep sleep” value (1 h after treatment) was −100% and the “change in time spent in light sleep” value (1 h after treatment) was −99%. For the same compound, the “change in number of REM sleep epochs” value (1 hr) was −100%, the “change in number of deep sleep epochs” value (1 hr) was −100% and the “change in number of light sleep epochs” value (1 hr) was −99%. For the same compound, the “change in duration of REM sleep” value (1 hr after administration) was −100%, the “change in number of deep sleep epochs” value (1.5 h) was −100% and the “change in number of light sleep epochs” value (1.5 h) was −87%. The “change in number of REM sleep epochs” value (1.5 hr) was −100%, the “change in number of active wakefulness epochs” value (1.5 hr) was “+312%” and the “change in duration of REM sleep” value (1.5 hr after administration) was −100%. The “change in duration of active wakefulness” value (1.5 hr after treatment) was “+312%”, the “change in time spent in deep sleep” value (1.5 hr after treatment) was −99% and the “change in time spent in light sleep” value (1.5 hr after treatment) was −87%. For the same compound, the “change in number of active wakefulness epochs” value (2 h) was “+119%”, the “change in duration of active wakefulness” value (2 h after treatment) was “+120%” and the “change in time spent in deep sleep” value (2 h after treatment) was −70%. The “change in time spent in light sleep” value (2 h after treatment) was −25%, the “change in number of REM sleep epochs” value (2 hr) was −87% and the “change in number of deep sleep epochs” value (2 hr) was −38%. The “change in number of light sleep epochs” value (2 hr) was −22%, the “change in duration of REM sleep” value (2 hr after administration) was −87% and the “change in number of REM sleep epochs” value (2.5 hr) was −47%. For the same compound, the “change in number of active wakefulness epochs” value (2.5 hr) was “+166%”, the “change in duration of REM sleep” value (2.5 hr after administration) was −47% and the “change in duration of active wakefulness” value (2.5 hr after treatment) was “+166%”. The “change in number of REM sleep epochs” value (3 hr) was −78%, the “change in number of active wakefulness epochs” value (3 hr) was “+77%” and the “change in duration of REM sleep” value (3 hr after administration) was −78%. For the same compound, the “change in duration of active wakefulness” value (3 hr after treatment) was “+77%”, the “decrease in total time spent in REM sleep” value [1] was −18% and the “increase in total duration of active wakefulness” value [1] was “+14%”.
